From patent publication US9770026B2, “Substituted pyrimidine compound and uses thereof” (Shenyang Sinochem Agrochemicals R&D Co., Ltd., priority 2012, dated 2017) come the findings set out here.

Each structure is given as a SMILES string. Some results are limits rather than exact numbers.

Assay [1] deals with rice blast. The assay is described as follows: microbe, parasite or virus in culture. The following applies: Pyricularia oryzae; for inhibition at 25 ppm: read-out: inhibition rate against rice blast, 25 ppm, in vitro; for inhibition at 8.3 ppm: read-out: inhibition rate against rice blast, 8.3 ppm, in vitro. Format: cell-based.
The subject of assay [2] is Diamond back moth. The assay can be described thus: insecticidal activity against diamond back moth, airbrush spray. Format: in vivo. Particulars: 72 h; for pest or weed control at 600 µg/mL: 600 mg/L. The method in brief:
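Airbrush leaf-disc spray test: both faces of 2 cm cabbage discs received 0.5 ml of test solution at 0.7 kg/cm^2. Solutions were made in acetone:methanol (1:1) and brought to concentration with 0.1% Tween 80 in water. Ten second-instar larvae per disc, triplicates, were held at 25° C and 60˜70% R.H., with mortality recorded at 72 hrs.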

Assay [3] relates to corn rust. The assay can be described thus: protectant activity in vivo against corn rust. Particulars: Zea mays, 168 h; for pest or weed control at 400 µg/mL: read-out: control effect against corn rust (%), 400 mg/L; for pest or weed control at 400 µg/mL / pest or weed control at 6.25 µg/mL / pest or weed control at 25 µg/mL / pest or weed control at 100 µg/mL: protectant activity; for pest or weed control at 6.25 µg/mL: read-out: control effect against corn rust (%), 6.25 mg/L; for pest or weed control at 25 µg/mL: read-out: control effect against corn rust (%), 25 mg/L; for pest or weed control at 100 µg/mL: read-out: control effect against corn rust (%), 100 mg/L.

For assay [4], the system named is cucumber gray mold. The assay can be described thus: fungicidal activity in vitro (inhibition rate) against cucumber gray mold. Format: cell-based. The following applies: 25 ppm, in vitro; read-out: inhibition rate against cucumber gray mold.
Assay [5] deals with cucumber downy mildew. The assay is described as follows: protectant activity in vivo against cucumber downy mildew. Particulars: Cucumis sativus, 168 h; for pest or weed control at 6.25 µg/mL: read-out: control effect against cucumber downy mildew (%), 6.25 mg/L; for pest or weed control at 12.5 µg/mL: read-out: control effect against cucumber downy mildew (%), 12.5 mg/L; for pest or weed control at 25 µg/mL: read-out: control effect against cucumber downy mildew (%), 25 mg/L; for pest or weed control at 50 µg/mL: read-out: control effect against cucumber downy mildew (%), 50 mg/L; for pest or weed control at 100 µg/mL: read-out: control effect against cucumber downy mildew (%), 100 mg/L; for pest or weed control at 400 µg/mL: read-out: control effect against cucumber downy mildew (%), 400 mg/L.

Assay [6] deals with wheat powdery mildew. The assay is described as follows: protectant activity in vivo against wheat powdery mildew. Particulars: Triticum aestivum, 168 h; for pest or weed control at 400 µg/mL: read-out: control effect against wheat powdery mildew (%), 400 mg/L; for pest or weed control at 400 µg/mL / pest or weed control at 6.25 µg/mL / pest or weed control at 25 µg/mL / pest or weed control at 100 µg/mL: protectant activity; for pest or weed control at 6.25 µg/mL: read-out: control effect against wheat powdery mildew (%), 6.25 mg/L; for pest or weed control at 25 µg/mL: read-out: control effect against wheat powdery mildew (%), 25 mg/L; for pest or weed control at 100 µg/mL: read-out: control effect against wheat powdery mildew (%), 100 mg/L.

For assay [7], the system named is Green peach aphids (Myzus Persicae Sulzer). The assay is described as follows: bioactivity test against green peach aphid, airbrush foliar spray. Format: in vivo. Particulars: Myzus persicae, foliar, 48 h; for pest or weed control at 10 µg/mL: 10 mg/L; for pest or weed control at 100 µg/mL: 100 mg/L; for pest or weed control at 600 µg/mL: 600 mg/L. The method in brief: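 Aphids (15-30 per cabbage leaf disc) on moist filter paper were airbrush-sprayed at 10 psi, 0.5 mL, with compound from acetone:methanol (1:1) diluted in water with 0.1% tween 80. Held at 25±1 C, 60±5% RH; survivors counted after 48 hrs to give death rates.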

In assay [8] the test system is carmine spider mite. The assay can be described thus: bioactivity test against carmine spider mite, airbrush spray. The assay is classed as in vivo. The following applies: Tetranychus cinnabarinus, 72 h; for pest or weed control at 10 µg/mL: 10 mg/L; for pest or weed control at 10 µg/mL / pest or weed control at 100 µg/mL / pest or weed control at 600 µg/mL: contrastive test, read-out: Insecticidal activity against carmine spider mite (% ); for pest or weed control at 100 µg/mL: 100 mg/L; for pest or weed control at 600 µg/mL: 600 mg/L. A digest of the protocol:
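Broadbean seedlings infested with adult mites were sprayed with compound (acetone/methanol stock diluted in 0.1% Tween 80 water) by airbrush at 0.7 kg/cm^2, 0.5 ml. Three replicates were run. Mortality was scored after 72 hrs.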

In assay [9] the test system is armyworm. The assay is described as follows: bioactivity test against armyworm, airbrush spray. Particulars: 72 h; for pest or weed control at 600 µg/mL: 600 mg/L. The assay is classed as in vivo.
Where [10] appears, read: contrastive test, read-out: Insecticidal activity against peach aphid (%).
Where [11] appears, read: read-out: Insecticidal activity against armyworm (%).

For orientation: inhibition means the change of the read-out against control, counted positive when it falls. Consider `CCc1ncnc(NCCc2ccc(Oc3ccc(Cl)nn3)cc2)c1Cl` [Compound I-3309], for which the inhibition at 25 ppm in [1] and in [4] was 80 to 99% throughout. The pest or weed control at 10 µg/mL in assay [2] (10 mg/L) came out at 60%; in assay [7] (setting [10]), 100%; in assay [9] (10 mg/L, read-out: Insecticidal activity against armyworm (%)), 60%. Further, the pest or weed control at 100 µg/mL in [2] (100 mg/L) was 100%; in assay [5] (protectant activity), 90%; in assay [7] (setting [10]), 100%; in assay [9] (100 mg/L, read-out: Insecticidal activity against armyworm (%)) it was 100%. For the same molecule, the pest or weed control at 600 µg/mL in assay [2], in assay [7] (setting [10]) and in [9] (setting [11]) was 100% throughout. Moreover, the pest or weed control at 100 ppm in [2] (100 ppm, mortality after 72 hrs, read-out: control (test results against diamond back moth)) is 100%; in [3] (read-out: protectant activity against corn rust in vivo, 100 ppm), 80 to 99%; in [5] (read-out: protectant activity against cucumber downy mildew in vivo, 100 ppm), 80 to 99%; in assay [7] (100 ppm, death rate after 48 hrs), 100%; in assay [8] (100 ppm, mortality after 72 hrs) it was 80 to 99%; in assay [9] (100 ppm, mortality after 72 h), 100%. For the same molecule, the pest or weed control at 600 ppm in assay [2] (600 ppm, mortality after 72 hrs, read-out: control (test results against diamond back moth)) was 100%; in assay [7] (600 ppm, death rate after 48 hrs) it was 100%; in assay [8] (600 ppm, mortality after 72 hrs) it was 80 to 99%; in assay [9] (600 ppm, mortality after 72 h), 100%. Moreover, the pest or weed control at 3.125 µg/mL in [5] (read-out: control effect against cucumber downy mildew (%), 3.125 mg/L, protectant activity) was found to be 50%. For the same molecule, the pest or weed control at 6.25 µg/mL in [5] (protectant activity) worked out at 60%. Moreover, the pest or weed control at 12.5 µg/mL in assay [5] (protectant activity) amounted to 70%. The pest or weed control at 25 µg/mL in assay [5] (protectant activity) amounted to 90%. The pest or weed control at 50 µg/mL in assay [5] (protectant activity) came out at 90%. Further, the pest or weed control at 400 µg/mL in [5] (protectant activity) is 100%. Besides, the pest or weed control at 25 ppm in assay [5] (read-out: protectant activity against cucumber downy mildew in vivo, 25 ppm) is 80 to 99%. The pest or weed control at 50 ppm in assay [5] (read-out: protectant activity against cucumber downy mildew in vivo, 50 ppm) was 80 to 99%. Moreover, the pest or weed control at 400 ppm stood at 100% in assay [5] (read-out: protectant activity against cucumber downy mildew in vivo, 400 ppm) and 100% in [6] (read-out: protectant activity against wheat powdery mildew in vivo, 400 ppm). Further, the pest or weed control at 1.25 µg/mL in assay [7] (1.25 mg/L, contrastive test, read-out: Insecticidal activity against peach aphid (%)) was 48%. In addition, in [7] (2.5 mg/L, contrastive test, read-out: Insecticidal activity against peach aphid (%)), the pest or weed control at 2.5 µg/mL came to 96%. For the same molecule, the pest or weed control at 5 µg/mL in assay [7] (5 mg/L, contrastive test, read-out: Insecticidal activity against peach aphid (%)) came out at 100%. For the same molecule, in assay [7] (10 ppm, death rate after 48 hrs), the pest or weed control at 10 ppm worked out at 100%.

With `Cc1ncnc(NC(=O)Cc2ccc(Oc3ccc(C(F)(F)F)cn3)cc2)c1Cl` [CK56, reference compound], the inhibition at 25 ppm in assay [1] and in assay [4] was less than 50% in each case. The pest or weed control at 600 µg/mL in assay [2] amounted to 0%; in [7] (setting [10]), 100%; in assay [8], 32%; in assay [9] (setting [11]), 0%. For the same molecule, the figures for the pest or weed control at 400 µg/mL in [3], in assay [5] (protectant activity) and in assay [6] were 70%, 100% and 70%, respectively. In assay [5] (protectant activity), the pest or weed control at 25 µg/mL turned out to be 0%. For the same molecule, in assay [5] (protectant activity), the pest or weed control at 50 µg/mL came to 0%. The pest or weed control at 100 µg/mL in assay [5] (protectant activity) is 10%; in [7] (setting [10]), 0%; in assay [8], 25%. For the same molecule, the pest or weed control at 10 µg/mL in assay [7] (setting [10]) and in assay [8] was 0% each time.

In the case of `Cc1ncnc(NC(C)c2cccc3ccccc23)c1Cl` (stereo not shown) [CK17, reference compound], the inhibition at 2.8 ppm in assay [1] (read-out: inhibition rate against rice blast, 2.8 ppm, in vitro) was 0%. In assay [1], the inhibition at 8.3 ppm was 50%. In addition, the pest or weed control at 600 µg/mL in assay [2] is 0%; in assay [7] (setting [10]), 0%; in [8] it was 40%; in assay [9] (setting [11]), 0%. The pest or weed control at 6.25 µg/mL is 0% in [3] and 50% in [6]. Besides, the values for the pest or weed control at 25 µg/mL in [3], in assay [5] (protectant activity) and in assay [6] were 0%, 0% and 70%, respectively. Further, the pest or weed control at 100 µg/mL was determined as 0% in assay [3], 40% in [5] (protectant activity) and 75% in assay [6]. For the same molecule, the pest or weed control at 400 µg/mL in [3], in assay [5] (protectant activity) and in assay [6] was 100% in each case. The inhibition at 25 ppm in assay [4] was 0%. Also, the pest or weed control at 50 µg/mL in assay [5] (protectant activity) was found to be 10%.

For the molecule `CCC(Nc1ncnc(C)c1Cl)c1ccc(OC(F)F)cc1` (stereo not shown) [diflumetorim, reference compound], the inhibition at 8.3 ppm in assay [1] stood at 0%. In assay [2], this molecule showed a pest or weed control at 600 µg/mL of 0%. Moreover, in [3], the pest or weed control at 6.25 µg/mL came out at 0%, the pest or weed control at 25 µg/mL came to 10%, the pest or weed control at 100 µg/mL stood at 80% and the pest or weed control at 400 µg/mL is 100%. Further, the inhibition at 25 ppm in assay [4] turned out to be 0%. In [5] (protectant activity), the pest or weed control at 6.25 µg/mL came to 0%, the pest or weed control at 12.5 µg/mL was 15%, the pest or weed control at 25 µg/mL was 70% and the pest or weed control at 50 µg/mL is 100%. In addition, in [5] (protectant activity), the pest or weed control at 100 µg/mL turned out to be 100% and the pest or weed control at 400 µg/mL came to 100%. Also, in assay [6], the pest or weed control at 6.25 µg/mL stood at 90%, the pest or weed control at 25 µg/mL amounted to 95%, the pest or weed control at 100 µg/mL came to 95% and the pest or weed control at 400 µg/mL was determined as 100%. Further, in assay [7] (setting [10]), the pest or weed control at 10 µg/mL came out at 0%, the pest or weed control at 100 µg/mL came out at 35% and the pest or weed control at 600 µg/mL was 100%. Also, in [8], the pest or weed control at 10 µg/mL was 73%, the pest or weed control at 100 µg/mL amounted to 100% and the pest or weed control at 600 µg/mL came to 100%. Besides, the pest or weed control at 600 µg/mL in [9] (setting [11]) was found to be 0%.

Regarding `CCc1ncnc(NC(=O)Cc2ccc(Oc3ccc(C(F)(F)F)cc3)cc2)c1Cl` [CK59, reference compound], the inhibition at 25 ppm in [1] and in [4] was 0% each time. Further, the pest or weed control at 600 µg/mL came to 57% in assay [2], 75% in assay [7] (setting [10]), 0% in [8] and 14% in assay [9] (setting [11]). The pest or weed control at 400 µg/mL in assay [3] amounted to 0%; in assay [5] (protectant activity), 80%; in assay [6], 0%. Also, the pest or weed control at 10 µg/mL in [7] (setting [10]) was determined as 0%. The pest or weed control at 100 µg/mL in assay [7] (setting [10]) amounted to 15%.
